# Results published in US10507207B2, “Non-nucleosidic inhibitors of reverse transcriptase as antagonists of cell proliferation and inducers of cell differentiation” (ISTITUTO SUPERIORE DI SANITA, priority 2001, dated 2019).
# Experiments:
# [1] = test system: HT-29 colon carcinoma cells; assay: Cell proliferation by cell counting; assay type: cell-based, human; details: 350 μM nevirapine
# From the text: (§1) Samples were withdrawn at specific times and cells were counted in nevirapine-exposed and control (DMSO-exposed) cultures. […] Saos-2 osteosarcoma cells were the most slowly responsive type, and only after 5 days of exposure did the growth rate begin to decrease compared to control cultures.
# [2] = test system: human acute myeloid leukemia (AML) cells; assay: NBT dye reduction assay, summary over Table 2; assay type: cell-based; details: nevirapine treatment vs control (Table 2)
# [3] = test system: Saos-2 osteosarcoma cells; assay: Cell proliferation by cell counting; assay type: cell-based, human; details: 350 μM nevirapine vs control cultures
# Protocol: as §1
# The effect of efavirenz was further tested in human HeLa adenocarcinoma and Saos-2 osteosarcoma cells. Both cell lines were cultured in the conditions described above (Example 6). To establish if prolonged exposure to the drug improved the effectiveness of growth inhibition, both cell lines were exposed to efavirenz in two subsequent cycles: during the 1st cycle cells were continuously exposed to 20 μM efavirenz for 5 days; cells were then diluted, reseeded again and the 2nd cycle exposure was initiated the following day with fresh drug. […] The inhibitory effect was time-dependent, since in both HeLa and Saos-2 cultures, the 1st cycle of exposure (5 days) yielded a 1.6- and 1.5-fold reduction, respectively, whereas a 5- and 4-fold reduction was obtained in the 2nd cycle (carried out until day 20 from the onset of exposure).
# teratocarcinoma F9 cells = assay: Differentiation of F9 cells (morphology, collagen type IV immunofluorescence); assay type: cell-based, murine; details: IF after 96 h
# Protocol: After 96 h, samples were fixed and processed for IF of collagen type IV (α1) chain (FIG. 5c, FIG. 5g, FIG. 5k) and DAPI staining of nuclei (FIG. 5b, FIG. 5f, FIG. 5j); pictures are merged in FIG. 5d, FIG. 5h and FIG. 5l (100× objective).
# NB4 cells [4] = assay: Morphological differentiation, Wright-Giemsa staining; assay type: cell-based, human; details: five days of nevirapine treatment (400 μM)
# F9 teratocarcinoma cells = assay: Cell proliferation by cell counting; assay type: cell-based, murine; details: 350 μM nevirapine, after 120 h of exposure
# Protocol: NIH/3T3 embryo fibroblasts and F9 teratocarcinoma cells were cultured in DMEM containing 10-20% fetal serum and two concentrations of efavirenz, i.e. 10 and 20 μM, diluted from a stock solution (10 mM) in 100% DMSO. Cells were plated at a density of 2-5×10^4 in 35 mm Petri dishes and exposed to efavirenz 5-6 hours later. Samples were withdrawn at specific times and cells were counted in efavirenz-exposed compared to parallel non-exposed cell cultures.
# early mouse embryos = assay: Early mouse embryo cultures from in vitro fertilization (IVF) assays; details: added to cultures of IVF embryos; preliminary studies
# NB4 cells [5] = assay: NBT dye reduction assay; assay type: cell-based, human; details: NB4, Nev 350 μM, 4 days
# AML #1 [6] = assay: Growth, viable cell count; assay type: cell-based, human; details: AML #1, Nev 350 μM, 4 days
# primary AML blasts = assay: Differentiation of AML cells poorly sensitive to RA; assay type: cell-based, human; details: nevirapine treatment
# F9 cells = assay: Semi-quantitative RT-PCR of cell cycle regulatory genes; assay type: cell-based, murine; details: nevirapine compared to non-exposed F9 cultures
# From the text: FIG. 7B: Quantitative variations in gene expression. RT-PCR products hybridized with internal oligonucleotides were quantified by densitometry. […] Dark histograms represent the mean value, and light histograms the standard deviation, from at least three experiments for each gene. […] We examined a set of genes encoding D-type cyclins; growth inhibitors; modulators of apoptosis; and housekeeping proteins.
# HL60 cells [7] = assay: Growth, viable cell count; assay type: cell-based, human; details: HL60, Nev 350 μM, 4 days
# ascite tumor = assay: BALB/C mice inoculated with ascite tumor; assay type: in vivo; details: nevirapine 1 mg/mouse/day intraperitoneally for seven days from day of inoculation; controls 5/5 tumor
# Protocol: Procedure: 10 BALB/C mice were inoculated intraperitoneally (twice) with ascite tumor cells by injecting 0.2 ml of ascite withdrawn from an animal inoculated 8 days before. […] Mice were treated continuously with nevirapine for seven days.
# AML#1 = assay: Cytofluorimetric analysis of cell surface markers; assay type: cell-based, human; details: AML#1, NEV 450 μM, 4 days
# AML #2 = assay: Growth, viable cell count; assay type: cell-based, human; details: AML #2, Nev 350 μM, 4 days
# Kasumi-1 cells [8] = assay: Differentiation of AML cells poorly sensitive to RA; assay type: cell-based, human; details: nevirapine treatment
# U343 Mg = assay: FACS cell cycle analysis; assay type: cell-based, human; details: after 72 h of nevirapine treatment
# From the text: (§2) FIG. 3A. Cell cycle analysis in control and nevirapine-exposed cells. […] In the U343 glioma cell line, the cell cycle was separately analysed in the diploid cell fraction (representing about ⅔ of all cells) and in the remaining fraction (about ⅓) which develops aneuploidy. FIG. 3B. […] The filter was reprobed with anti-actin antibody to control equal loading (lower panel).
# HT-29 = assay: FACS cell cycle analysis; assay type: cell-based, human; details: after 72 h of nevirapine treatment
# From the text: as §2
# MCF-7 = assay: FACS cell cycle analysis; assay type: cell-based, human; details: after 72 h of nevirapine treatment
# From the text: as §2
# NB4 cells [9] = assay: Cytofluorimetric analysis of cell surface markers; assay type: cell-based, human; details: NB4, NEV 450 μM, 4 days
# From the text: (§3) The induction of CD11b is associated with granulocytic differentiation, CD14 is considered a monocytic specific antigen and CD15 is a myelomonocytic antigen. Simultaneous induction of CD14 and CD11b relates to monocytic differentiation. […] In nevirapine-treated NB4 and HL60 cells, a strong induction of expression of CD15, and, to a lesser degree, CD11b and CD14 markers was detected.
# HL60 cells [10] = assay: Cytofluorimetric analysis of cell surface markers; assay type: cell-based, human; details: HL60, NEV 450 μM, 4 days
# From the text: as §3
# AML #1 [11] = assay: NBT dye reduction assay; assay type: cell-based, human; details: AML #1, Nev 350 μM, 4 days
# Kasumi-1 cells [12] = assay: Growth, viable cell count; assay type: cell-based, human; details: Kasumi-1, Nev 350 μM, 4 days
structure (smiles),measurement,setting,value
"Cc1ccnc2c1NC(=O)c1cccnc1N2C1CC1 [nevirapine, 5,11-dihydro-11-cyclopropyl-4-methyl-6H-dipyrido-[3,2-b:2′,3′-e][1,4]diazepin-6-one]",effectiveness of proliferation suppression compared with F9,[1],comparable effectiveness
same,increase in the number of positive cells in the NBT dye reduction assay,[2],2.0-3.5 fold
same,exposure after which the growth rate begins to decrease,[3],5 days
same,synthesis of collagen type IV(α1) chain,teratocarcinoma F9 cells,increased synthesis
same,morphology,NB4 cells [4],myelomonocytic-like morphology was evident
same,reduction in the proliferation rate,F9 teratocarcinoma cells,5 fold
same,development of early mouse embryos,early mouse embryos,early and effective developmental arrest
same,NBT+ (%),NB4 cells [5],37.2 ± 1.4%
same,Viable cells N^0 × 10^5,AML #1 [6],0.6 ± 0.1 × 10^5
same,"differentiation (morphological, functional, immunophenotypic)",primary AML blasts,triggering differentiation
same,Bcl-2 expression,F9 cells,Up-regulation
same,Cyclin D3 expression,F9 cells,down-regulated
same,Rb-2/p130 expression,F9 cells,Up-regulation
same,cyclin D1 gene down-regulation,F9 cells,7 fold
same,"expression of housekeeping genes (β-actin, GAPDH)",F9 cells,unaffected
same,p16^INK4a up-regulation,F9 cells,~8 fold
same,p27^Kip1 expression,F9 cells,Up-regulation
same,p53 expression,F9 cells,unaffected
same,Viable cells N^0 × 10^5,HL60 cells [7],4.7 ± 1.1 × 10^5
same,treated animals remaining healthy with no evidence of tumor growth,ascite tumor,⅗
same,CD11b mean fluorescence intensity,AML#1,5.9 AU
same,CD14 mean fluorescence intensity,AML#1,8.8 AU
same,CD15 mean fluorescence intensity,AML#1,15.6 AU
same,Viable cells N^0 × 10^5,AML #2,1.2 ± 0.1 × 10^5
same,"differentiation (morphological, functional, immunophenotypic)",Kasumi-1 cells [8],triggering differentiation
same,cells with a G0/G1 DNA content,U343 Mg,accumulated
same,cells with a G0/G1 DNA content,HT-29,accumulated
same,cells with a G0/G1 DNA content,MCF-7,accumulated
same,CD11b mean fluorescence intensity,NB4 cells [9],10.1 AU
same,CD14 mean fluorescence intensity,NB4 cells [9],23.1 AU
same,CD15 mean fluorescence intensity,NB4 cells [9],196.3 AU
same,CD11b mean fluorescence intensity,HL60 cells [10],16.6 AU
same,CD14 mean fluorescence intensity,HL60 cells [10],45.3 AU
same,CD15 mean fluorescence intensity,HL60 cells [10],1298.1 AU
same,NBT+ (%),AML #1 [11],19.5 ± 0.7%
same,Viable cells N^0 × 10^5,Kasumi-1 cells [12],4.5 ± 0.9 × 10^5
